Converted amounts (≈) assume the structure as drawn. “And” between values parts separate entries of the source, which are not always exact repeats. Identical values can stand only once. Like-named read-outs stand apart in the source and are kept apart here.
Experiments:
[1] = tested on: C. difficile ATCC 43255; assay: Determination of minimal-inhibitory concentrations (microdilution), C. difficile ATCC 43255; assay type: cell-based, Clostridioides difficile; conditions: for MIC: Clostridioides difficile; for ATCC43255 MIC: C. difficile ATCC43255
[2] = tested on: C. difficile strain ATCC43255 spores; assay: Spore germination inhibition assay; assay type: cell-based, Clostridioides difficile; conditions: compound 45 μM, germinant 6 mM taurocholate and 12 mM glycine, OD600 over 60 min, duplicate; for inhibition at 45 µM: Clostridioides difficile, 1 h
[3] = tested on: THP-1 cells; assay: Lactate dehydrogenase (LDH) cytotoxicity assay; assay type: cell-based, human; conditions: Homo sapiens; THP-1 cells, 24 h; read-out: LDH (IC50)
[4] = tested on: S. aureus; assay: MIC against S. aureus strains; assay type: cell-based; conditions: S. aureus ATCC 29213, 24 h; for MIC: Staphylococcus aureus, ATCC29213, 24 h, read-out: MIC (μg/mL) 24 h
[5] = ATCC43255, C. difficile ATCC43255, read-out: ATCC43255 MIC
[6] = ATCC43255, 24 h, C. difficile ATCC 43255, 24 h, read-out: MIC (μg/mL) 24 h
[7] = C. difficile ATCC 43255, 48-h incubation
[8] = ATCC43255, 48 h, C. difficile ATCC 43255, 48-h incubation, read-out: MIC (μg/mL) 48 h

Compound	MIC [1, 5] [µg/mL]	inhibition at 45 µM [2] [%]	MIC (μg/mL) 48 h [1, 7]	MIC (μg/mL) 24 h ([1]; C. difficile ATCC 43255, 24 h) [µg/mL]	MIC (μg/mL) 24 h [4] [µg/mL]	also measured
NCc1ccc(-c2nc(-c3ccnc(Oc4ccc(C(F)(F)F)cc4)c3)no2)cc1 [YQ-4-104]	8 (≈ 19.4 µM)	74 ± 5	–	–	–	–
Oc1ccc(-c2noc(-c3ccc(OC4CCCC4)cc3)n2)cc1 [Compound 137, 5-(4-(Cyclopentyloxy)phenyl)-3-(4-hydroxyphenyl)-1,2,4-oxadiazole]	–	–	–	–	–	MIC [1, 6]: 4 µg/mL (≈ 12.4 µM); MIC ([1]; ATCC43255, Table 1, strain ATCC 43255, read-out: MIC C. difficile): 4 µg/mL (≈ 12.4 µM); IC50 [3]: 8.5 ± 0.2 µg/mL (≈ 26.4 µM)
C#Cc1ccc(Oc2cnc(-c3noc(-c4ccc(CN)cc4)n3)cc2C2(C(F)(F)F)N=N2)cc1 [YQ-4-169]	–	–	–	–	–	ATCC43255 MIC [1]: 8 µg/mL; % Spore Germination Inhibition at 45 μM [2]: 63 ± 3%
Nc1cc(Oc2ccccc2)cnc1-c1noc(-c2ccc(O)cc2)n1 [MAB-02-27A]	> 128	17 ± 1	–	–	–	–
NCCCCc1nc(-c2ccc(Oc3ccc(C(F)(F)F)cc3)cc2)no1 [DR-06-025]	> 128	44 ± 2	–	–	–	–
Oc1ccc(-c2nc(-c3ccc(Oc4ccccc4CBr)cc3)no2)cc1 [MAB-02-59A]	> 128	30 ± 3	–	–	–	–
NCc1ccc(-c2nc(-c3ccc(Oc4ccc(F)c(F)c4)cn3)no2)cc1 [YQ-4-99]	8 (≈ 21 µM)	44 ± 3	–	–	–	–
FC(F)(F)c1ccc(Oc2ccc(-c3noc(-c4n[nH]cc4NC4CCCC4)n3)cc2)cc1 [Compound 38]	–	–	>128 µg/mL	>128	>128	–
COc1ccc2oc3ccc(-c4noc(-c5n[nH]cc5[N+](=O)[O-])n4)cc3c2c1 [Compound 119, 3-(8-Methoxydibenzo[b,d]furan-2-yl)-5-(4-nitro-1H-pyrazol-3-yl)-1,2,4-oxadiazole]	–	–	–	–	–	MIC [1, 6]: 2 µg/mL (≈ 5.3 µM); MIC [1, 8]: 64 µg/mL (≈ 170 µM); MIC [4]: 32 µg/mL (≈ 84.8 µM)
CC(C)(C)OC(=O)N1CCC(Nc2c[nH]nc2-c2nc(-c3ccc(Oc4ccc(C(F)(F)F)cc4)cc3)no2)CC1 [Compound 42]	–	–	>128 µg/mL	>128	>128	–
CS(=O)(=O)Nc1ccc(-c2nc(-c3ccc(OC4CCCC4)cc3)no2)cc1 [Compound 52, N-(4-(3-(4-(Cyclopentyloxy)phenyl)-1,2,4-oxadiazol-5-yl)phenyl) methanesulfonamide]	–	–	>128 µg/mL	–	–	MIC [1, 6]: > 128 µg/mL; MIC [4]: > 128 µg/mL
FC(F)(F)c1ccc(Oc2ccc(-c3noc(-c4n[nH]c5ccccc45)n3)cc2)cc1 [Compound 45]	–	–	>128 µg/mL	>128	>128	–
Oc1ccc(-n2cc(-c3ccc(Oc4ccccc4)cc3)nn2)cc1 [Compound 136, 4-(4-(4-Phenoxyphenyl)-1H-1,2,3-triazol-1-yl)phenol]	–	–	>128 µg/mL	–	–	MIC [1, 6]: > 128 µg/mL; MIC [4]: > 128 µg/mL
O=C1C[C@@H](c2nc(-c3ccc(Oc4ccc(C(F)(F)F)cc4)cc3)no2)CN1 [Compound 32]	–	–	>128 µg/mL	>128	>128	–
Nc1cc(-c2nc(-c3ccc(Oc4ccc(C(F)(F)F)cc4)cc3)no2)ccn1 [Compound 24]	–	–	>128 µg/mL	>128	>128	–
Nc1ccc(-c2nc(-c3ccc(OC4CCCC4)cc3)no2)cc1 [Compound 51, 4-(3-(4-(Cyclopentyloxy)phenyl)-1,2,4-oxadiazol-5-yl) aniline]	–	–	>128 µg/mL	–	–	MIC [1, 6]: 2 µg/mL (≈ 6.22 µM); MIC [4]: 4 µg/mL (≈ 12.4 µM)
CCC(C)Nc1c[nH]nc1-c1nc(-c2ccc(Oc3ccc(C(F)(F)F)cc3)cc2)no1 (centres unmarked) [Compound 41]	–	–	>128 µg/mL	>128	>128	–
OCC#Cc1c[nH]nc1-c1nc(-c2ccc(Oc3ccc(C(F)(F)F)cc3)cc2)no1 [Compound 29]	–	–	>128 µg/mL	>128	4 (≈ 9.38 µM)	–
O=[N+]([O-])c1c[nH]nc1-c1nc(-c2ccc(Oc3ccc(C(F)(F)F)cc3)cc2)no1 [DR-04-089]	–	–	–	–	–	ATCC43255 MIC [1]: >128 µg/mL; % Spore Germination Inhibition at 45 μM [2]: 20 ± 3%
Oc1ccc(-c2nc(-c3ccc(OC4CCC4)cc3)no2)cc1 [Compound 93, 4-(3-(4-Cyclobutoxyphenyl)-1,2,4-oxadiazol-5-yl)phenol]	–	–	–	–	–	MIC [1, 6]: > 128 µg/mL; MIC [1, 8]: > 128 µg/mL; MIC [4]: > 128 µg/mL
NCc1ccc(-c2nc(-c3ccc(OC4CCCCC4)cc3)no2)cc1 [YQ-4-165]	8 (≈ 22.9 µM)	50 ± 2	–	–	–	–
O=[N+]([O-])c1ccccc1Oc1ccc(-c2noc(-c3ccc(O)cc3)n2)nc1 [MAB-02-29A]	> 128	26 ± 1	–	–	–	–
Oc1ccc(-c2nc(-c3ccc(Oc4ccc(I)cc4)cc3)no2)cc1 [MAB-01-250A]	–	–	–	–	–	ATCC43255 MIC [1]: >128 µg/mL; % Spore Germination Inhibition at 45 μM [2]: 62 ± 2%

Compound	MIC [1, 5] [µg/mL]	inhibition at 45 µM [2] [%]	MIC (μg/mL) 48 h [1, 7]	MIC (μg/mL) 24 h ([1]; C. difficile ATCC 43255, 24 h) [µg/mL]	MIC (μg/mL) 24 h [4] [µg/mL]	also measured
NCc1ccc(-c2nc(-c3ccc(Oc4ccc(C(F)(F)F)cc4)cn3)no2)cc1 [YQ-4-107]	–	24 ± 3	–	–	–	–
CCCCNc1c[nH]nc1-c1nc(-c2ccc(Oc3ccc(C(F)(F)F)cc3)cc2)no1 [Compound 40]	–	–	>128 µg/mL	>128	>128	–
O=c1ccc(-c2nc(-c3ccc(Oc4ccc(C(F)(F)F)cc4)cc3)no2)c[nH]1 [Compound 14]	–	–	>128 µg/mL	>128	>128	–
O=C1CC(c2nc(-c3ccc(Oc4ccc(C(F)(F)F)cc4)cc3)no2)CN1 (centres unmarked) [DR-03-138]	> 128	30 ± 14	–	–	–	–
Nc1cc(-c2nc(-c3ccc(Oc4ccc(C(F)(F)F)cc4)cc3)no2)cnc1O [Compound 15]	–	–	>128 µg/mL	>128	>128	–
NCc1ccc(-c2noc(-c3ccnc(-c4ccc(C(F)(F)F)cc4)c3)n2)cc1 [YQ-4-161]	> 128	55 ± 1	–	–	–	–
Nc1c[nH]nc1-c1nc(-c2ccc(Oc3ccc(C(F)(F)F)cc3)cc2)no1 [Compound 37]	–	–	>128 µg/mL	>128	4 (≈ 10.3 µM)	–
FC(F)(F)c1ccc(Oc2ccc(-c3noc(-c4c[nH]c5ncccc45)n3)cc2)cc1 [Compound 46]	–	–	>128 µg/mL	>128	>128	–
O=[N+]([O-])c1c[nH]c(-c2nc(-c3ccc(Oc4ccc(C(F)(F)F)cc4)cc3)no2)c1 [Compound 47]	–	–	8 µg/mL (≈ 19.2 µM)	8 (≈ 19.2 µM)	8 (≈ 19.2 µM)	–
NCCc1ccc(-c2nc(-c3ccc(Oc4ccc(F)cc4)cn3)no2)cc1 [YQ-4-170]	8 (≈ 21.3 µM)	48 ± 2	–	–	–	–
O=C(O)c1ccc(-c2nc(-c3ccc(OC4CCCC4)cc3)no2)cc1 [Compound 49, 4-(3-(4-(Cyclopentyloxy)phenyl)-1,2,4-oxadiazol-5-yl)benzoic acid]	–	–	>128 µg/mL	–	–	MIC [1, 6]: > 128 µg/mL; MIC [4]: > 128 µg/mL
NCc1ccc(-c2nc(-c3ccc(OC4CCCC4)cc3)no2)cc1 [YQ-4-81]	4 (≈ 11.9 µM)	41 ± 1	–	–	–	–
CC(C)Oc1ccc(-c2noc(-c3ccc(CN)cc3)n2)cc1C(F)(F)F [YQ-4-155]	16 (≈ 42.4 µM)	33 ± 1	–	–	–	–
Oc1ccc(-c2nc(-c3ccc(Oc4ccc(C(F)(F)F)cc4)cc3)no2)cc1O [Compound 12]	–	–	128 µg/mL and >128 µg/mL	>128	2 (≈ 4.83 µM)	–
CCCOc1ccc(-c2noc(-c3ccc(O)cc3)n2)cc1 [Compound 87, 4-(3-(4-Propoxyphenyl)-1,2,4-oxadiazol-5-yl)phenol]	–	–	–	–	–	MIC [1, 6]: 4 µg/mL (≈ 13.5 µM); MIC [1, 8]: > 128 µg/mL; MIC [4]: 128 µg/mL (≈ 432 µM)
NCc1ccc(-c2nc(-c3ccc(Oc4ccc(F)cc4)cc3)no2)cc1 [DR-05-250]	> 128	73 ± 5	–	–	–	–
Nc1ccc(-c2nc(-c3ccc(Oc4ccc(C(F)(F)F)cc4)cc3)no2)cc1F [Compound 20]	–	–	>128 µg/mL	>128	2 (≈ 4.82 µM)	–
c1cc2cc(-c3nc(-c4ccc5occc5c4)no3)ccc2[nH]1 [Compound 120, 3-(Benzofuran-5-yl)-5-(1H-indol-5-yl)-1,2,4-oxadiazole]	–	–	–	–	–	MIC [1, 6]: > 128 µg/mL; MIC [1, 8]: > 128 µg/mL; MIC [4]: 64 µg/mL (≈ 212 µM)
O=C(Nc1c[nH]nc1-c1nc(-c2ccc(Oc3ccc(C(F)(F)F)cc3)cc2)no1)c1ccccn1 [Compound 43]	–	–	>128 µg/mL	>128	>128	–
FC(F)(F)c1ccc(Oc2ccc(-c3noc(-c4n[nH]cc4Cl)n3)cc2)cc1 [Compound 26]	–	–	>128 µg/mL	>128	1 (≈ 2.46 µM)	–
FC(F)(F)c1ccc(Oc2ccc(-c3noc(-c4n[nH]cc4I)n3)cc2)cc1 [Compound 28]	–	–	128 µg/mL (≈ 257 µM)	128 (≈ 257 µM)	2 (≈ 4.01 µM)	–
NCc1ccc(-c2nc(-c3ccnc(-c4ccc(C(F)(F)F)cc4)c3)no2)cc1 [YQ-4-163]	16 (≈ 40.4 µM)	68 ± 5	–	–	–	–

— US20260125371A1, “METHOD FOR INHIBITING CLOSTRIDIOIDES DIFFICILE SPORE GERMINATION” (UNIVERSITY OF NOTRE DAME DU LAC, priority 2022, published 2026)
